Test results: the OPERA property sets (Mansouri et al. 2018)

In the case of `CCC(=O)c1ccc(Cl)cc1`, the melting point is reported as 37.3 °C. `Nc1ccc(S)cc1` gave a melting point of 46 °C. In the case of `CCOC(=O)CCC(=O)OC`, the boiling point is reported as 208 °C. For `OCCCCCCCCCCO`, the melting point was 74 °C. For `CCOc1ccc(Cl)cc1Cl`, the boiling point was 237 °C and the melting point was 32 °C. With `CCCCCCCCCCCCSCCC(=O)OCC(COC(=O)CCSCCCCCCCCCCCC)(COC(=O)CCSCCCCCCCCCCCC)COC(=O)CCSCCCCCCCCCCCC` the ready biodegradability was “not readily biodegradable”. Work on `CCOC(=O)CSc1nc(C(C)(C)C)nn1C(=O)N(C)C` yielded a log10 vapour pressure (mmHg) of -6.92 and a melting point of 53 °C. In the case of `CN(C)CCCCCCN(C)C`, the boiling point is reported as 210 °C and the ready biodegradability is reported as “not readily biodegradable”. Molecule `FC(F)(I)C(F)(F)C(F)(F)C(F)(F)I` has a boiling point of 150 °C and a melting point of -9 °C. For `CCc1ccccc1Nc1ccccc1CC`, the melting point was 29 °C. For `CCC(C)(C)S`, the boiling point was 99.1 °C and the log10 vapour pressure (mmHg) was 1.68. `CN(C)C(=O)Nc1cccc(Cl)c1` showed a log10 Koc (L/kg) of 1.79. `O=C(Nc1ccccc1)C(=O)Nc1ccccc1` gave a melting point of 254 °C. `CN(C)C(=S)SSC(=S)N(C)C` showed a log10 Koc (L/kg) of 2.83, a log10 vapour pressure (mmHg) of -4.76 and a melting point of 156 °C. For the same molecule, the ready biodegradability was “readily biodegradable”. In the case of `CC(=O)c1cc(C)ccc1C`, the boiling point is reported as 232 °C and the melting point is reported as -18.1 °C. `Cc1ccccc1NC(N)=S` gave a melting point of 162 °C. With `CCCCCCCCCCCCCCCCCCS` the boiling point was 360 °C, the log10 vapour pressure (mmHg) was -6.4 and the melting point was 30 °C. The ready biodegradability was “not readily biodegradable”. For `CC(CCN(C)C)N(C)C` (stereo not drawn), the boiling point was 165 °C. `CCCCCCCCCCOc1ccc(C(=O)O)cc1` gave a melting point of 114 °C. Work on `CCCCCCCCCCC=O` yielded a melting point of -4 °C. `Cc1ccc(S(=O)(=O)c2coc(S(N)(=O)=O)c2)cc1` showed a melting point of 185 °C. With `CCCCC(CC)COC(=O)C=CC(=O)OCC(CC)CCCC` (stereo not drawn) the ready biodegradability was “readily biodegradable”. With `Oc1cccc(C(F)(F)F)c1` the boiling point was 178 °C and the melting point was -1.8 °C. `C=C1C(=O)O[C@@H]2C=C(CO)CCC=C(C)C[C@H](OC(=O)C(=C)[C@@H](O)CO)[C@@H]12` gave a melting point of 143 °C. Work on `CC(=O)c1c[nH]c2ccccc12` yielded a melting point of 192 °C. In the case of `Cc1ccncc1C`, the boiling point is reported as 179 °C, the log10 Henry constant (atm·m³/mol) is reported as -5.43 and the log10 vapour pressure (mmHg) is reported as 0.092. The melting point was -11 °C. For `Oc1cccc2[nH]ccc12`, the melting point was 100 °C. `CCn1cc(C(=O)O)c(=O)c2cc(F)c(N3CCNCC3)nc21` gave a melting point of 222 °C. With `CC(C)CC(C)CC(C)C` the boiling point was 148 °C. `CC(C)(CCC(=O)O)C(=O)O` gave a melting point of 84 °C. Work on `COc1ccc(NC(N)=O)cc1Cl` yielded a log10 Koc (L/kg) of 2. For `CCOC(=O)CCCCCCCC(=O)OCC`, the boiling point was 292 °C and the melting point was -18.5 °C. In the case of `CN=NC`, the boiling point is reported as 1.5 °C and the melting point is reported as -78 °C. Work on `CC(C)N(CCC(C(N)=O)(c1ccccc1)c1ccccn1)C(C)C` (stereo not drawn) yielded a melting point of 94.8 °C. In the case of `CC(CO)N(C)C` (stereo not drawn), the boiling point is reported as 150 °C. In the case of `CC[N+](C)(CC)CCOC(=O)C(O)(c1cccs1)C1CCCC1.[Br-]` (stereo not drawn), the melting point is reported as 125 °C. With `CC(C)(C)c1ccccc1N` the boiling point was 234 °C. `Oc1cccc2cccnc12` gave a boiling point of 267 °C, a log10 vapour pressure (mmHg) of -2.78 and a melting point of 75.5 °C. The ready biodegradability was “not readily biodegradable”. `CCCCOCCOCC(C)O` (stereo not drawn) showed a boiling point of 230 °C. Molecule `CCCC(C)(C)CCC` has a boiling point of 135 °C. With `C=C(C)C=CC(=C)C` the boiling point was 146 °C and the melting point was -9 °C. In the case of `Nc1ccc(S(=O)c2ccc(N)cc2)cc1`, the melting point is reported as 175 °C. With `C=C(C)c1ccc(Cl)cc1` the ready biodegradability was “not readily biodegradable”. Molecule `CC1CCCC(C(C)C)C1` (stereo not drawn) has a boiling point of 166 °C. For `CC=CCCC`, the ready biodegradability was “not readily biodegradable”. `Cc1cc(C)c(C)c(O)c1` showed a boiling point of 230 °C, a log10 Koc (L/kg) of 3.61 and a log10 vapour pressure (mmHg) of -2.42. For the same molecule, the melting point was 93.5 °C. Molecule `CCCCCCCOC(C)=O` has a boiling point of 193 °C and a melting point of -50.2 °C. Molecule `Clc1cccc(-c2cc(Cl)cc(Cl)c2)c1` has a log10 Henry constant (atm·m³/mol) of -3.77. With `N#C/C=C/C#N` the boiling point was 186 °C and the melting point was 96.8 °C. `CCC(CC)COCCC(=O)O` showed a boiling point of 343 °C and a melting point of 32.5 °C. For `COc1ccc2c3c1O[C@H]1[C@@H](O)C=C[C@H]4[C@@H](C2)N(C)CC[C@@]341.Cl`, the melting point was 280 °C. `CC(Cl)(Cl)C(=O)[O][Na]` showed a log10 Koc (L/kg) of 0. `NC(=O)Nc1ccccc1F` showed a log10 Koc (L/kg) of 1.32. `CC1SC(C)SC(C)S1` (stereo not drawn) showed a boiling point of 246 °C and a melting point of 101 °C. `CC=C(Cl)CCl` showed a boiling point of 130 °C. For `CC(=NO)c1ccccc1`, the boiling point was 245 °C and the melting point was 60 °C. Molecule `Clc1cc2cc(Cl)c(Cl)cc2cc1Cl` has a log10 Koa of 8.45. Work on `O=S(=O)(Cl)C(Cl)(Cl)Cl` yielded a boiling point of 170 °C and a melting point of 140 °C. Work on `O=[N+]([O-])c1cc(N(CCO)CCO)ccc1NCCO` yielded a melting point of 95.5 °C. In the case of `Cc1ccc(O)c(C=O)c1`, the boiling point is reported as 218 °C and the melting point is reported as 56 °C. For `COC(=O)C(Cl)Cl`, the boiling point was 143 °C, the log10 vapour pressure (mmHg) was 0.654 and the melting point was -51.9 °C. `C=CCC(O)CC=C` showed a boiling point of 151 °C. `O=C(c1ccccc1)C1CCC1` showed a boiling point of 260 °C. For `CN(C)CCc1c[nH]c2ccccc12`, the melting point was 46 °C. For `CCOC(=O)C(O)(c1ccccc1)c1ccccc1`, the melting point was 34 °C. `CCc1cccc(C)c1C` showed a boiling point of 194 °C, a log10 biodegradation half-life (days) of 0.778 and a log10 vapour pressure (mmHg) of -0.206. It also gave a melting point of -49.5 °C. For `CNc1ccc(N)cc1`, the boiling point was 258 °C and the melting point was 36 °C. For `CN(Cc1cc(Br)cc(Br)c1N)C1CCCCC1`, the melting point was 238 °C. In the case of `O=C(O)C=Cc1ccc(Br)cc1`, the melting point is reported as 263 °C. `C[C@H](CCC(=O)O)[C@H]1CC[C@H]2[C@@H]3C(=O)C[C@@H]4CC(=O)CC[C@]4(C)[C@H]3CC(=O)[C@]12C` gave a melting point of 237 °C.
